Laboratory results as given in article PMC9804084, “Multiple drug transporters contribute to the brain transfer of levofloxacin” (CNS Neuroscience & Therapeutics, 2022).
Like-named read-outs stand apart in the source and are kept apart here.

How the values were obtained:
[1] = molecular target: T1, Breast cancer resistance protein (BCRP) (Rattus norvegicus, UniProt Q80W57); experiment: In vivo microdialysis pharmacokinetics of LVFX with BCRP inhibitor Ko143; conditions: intravenous, with Ko143 15 mg/kg i.p., Ko143 group, Ko143 15 mg/kg i.p. + LVFX 50 mg/kg; for MRT / AUC(0-inf) / Cmax / half-life / AUC(0-t): mean ± SD; for MRT / Tmax / AUC(0-inf) / Cmax / half-life: N=5; for AUC(0-t): N=5, read-out: AUC0–180 (converted)
T1 construct: from tissue; host or cells: living rat (blood-brain barrier, choroid plexus)
T1 sequence (Q80W57 1-657): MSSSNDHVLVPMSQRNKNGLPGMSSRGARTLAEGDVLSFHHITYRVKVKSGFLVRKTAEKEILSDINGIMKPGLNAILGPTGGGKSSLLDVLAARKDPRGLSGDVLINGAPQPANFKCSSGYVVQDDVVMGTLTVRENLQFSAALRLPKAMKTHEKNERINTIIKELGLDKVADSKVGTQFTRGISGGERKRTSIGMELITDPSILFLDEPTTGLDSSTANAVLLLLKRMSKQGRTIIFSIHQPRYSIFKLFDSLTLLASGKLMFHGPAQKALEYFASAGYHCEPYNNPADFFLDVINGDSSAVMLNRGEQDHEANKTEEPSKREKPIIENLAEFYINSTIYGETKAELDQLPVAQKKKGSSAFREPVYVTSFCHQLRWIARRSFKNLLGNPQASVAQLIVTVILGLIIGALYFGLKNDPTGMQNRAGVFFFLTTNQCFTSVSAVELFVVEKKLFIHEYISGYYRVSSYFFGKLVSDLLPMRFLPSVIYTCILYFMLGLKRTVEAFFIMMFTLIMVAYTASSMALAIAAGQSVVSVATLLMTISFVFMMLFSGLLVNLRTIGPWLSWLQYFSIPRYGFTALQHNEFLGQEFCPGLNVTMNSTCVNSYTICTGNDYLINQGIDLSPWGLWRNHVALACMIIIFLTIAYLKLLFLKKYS
Experimental: (§1) On the day of surgery, rats were anesthetized using inhaled isoflurane via a facemask. The rats were placed in a stereotaxic frame (Gene&I), and the body temperature was maintained with a homoeothermic blanket set at 37°C. A midline incision was made to expose the skull. According to the Paxinos and Watson atlas, two microdialysis intracerebral guide cannulae (Eicom Co.) were implanted into the hippocampus CA1 region (Hp‐CA1 coordinates: AP −4.16 mm; ML −2.2 mm; DV −2.9 mm) and lateral ventricle (LV coordinates: AP −1.4 mm; ML +2.2 mm; DV −3.4 mm). Fixed to the skull using a screw and dental cement. After 3 days of recovery, the rats were anesthetized with isoflurane again. An intravascular probe (TP‐100‐20; 20 mm, Eicom Co.) was implanted into the jugular vein toward the right atrium. After the blood microdialysis probe was positioned within the jugular vein, the pipeline was connected to perfuse with ACD solution (citric acid 3.5 mM; sodium citrate 7.5 mM; dextrose 13.6 mM) at a flow rate of […], and the Hamilton microinjection pump was used for continuous perfusion. After stopping isoflurane inhalation, the rats were allowed to wake up naturally on the homoeothermic blanket. The awake rats were placed in a device that allowed them to move freely. Animals were allowed to recover for an additional 24 h.
(§2) All microdialysate concentrations (C m) from the hippocampal ECF and lateral ventricle CSF were converted to the unbound drug concentration (C u) at the target site using the following formula: C u = C m/R dial.
(§3) A total of 32 rats were randomly divided into the following groups: • Control group, N = 12: vehicle solution + LVFX (50 mg/kg). • TAR group, N = 5: Tariquidar (8 mg/kg) + LVFX (50 mg/kg). • Ko143 group, N = 5: Ko143 (15 mg/kg) + LVFX (50 mg/kg). • MK571 group, N = 5: MK571 (20 mg/kg) + LVFX (50 mg/kg). • PRO group, N = 5: Probenecid (50 mg/kg) + LVFX (50 mg/kg).
(§4) Levofloxacin was freshly dissolved in isotonic saline and administered via tail vein injection. Thirty minutes before LVFX administration, the intervention drugs of each group were injected intraperitoneally. To reduce the possible effect of solvents on BBB or BCSFB permeability of LVFX, we prioritized water as the solvent. However, Tariquidar and Ko143 are insoluble in water, and a cosolvent must be used to prepare agents that animals can tolerate. According to the different physicochemical properties of these four inhibitors, the preparation of each transporter inhibitor solution in this experiment was as follows. • P‐glycoprotein (P‐gp) inhibitor Tariquidar[22]: Tariquidar was freshly dissolved in DMSO to 8 mg/ml and then diluted to 4 mg/ml with a solution containing 10% Tween‐80, 25% PEG300, and 65% sterile water. • Breast cancer resistance protein (BCRP) inhibitor Ko143[23]: Ko143 was freshly dissolved in DMSO to 15 mg/ml and then diluted to 7.5 mg/ml with a solution containing 10% Tween‐80, 25% PEG300, and 65% sterile water. • Multidrug resistance‐associated proteins (MRPs) inhibitor MK571[24]: MK571 sodium salt hydrate was dissolved in 1.25% (w/v) aq sodium hydrogen carbonate (NaHCO3) solution to obtain a concentration of 10 mg/ml. • Organic anion transporters (OATs) inhibitor probenecid[25]: Probenecid was dissolved in NaOH (pH = 9.0–9.2) alkalized physiological saline to obtain a concentration of 25 mg/ml.
(§5) The pipelines where the blood and brain probes were installed were perfused at the speed of 2 μl/min with ACD solution and ACSF, respectively. Two brain probes were inserted into guide cannulas of the target site and allowed to equilibrate for 1 h. Subsequently, the rats were treated according to their corresponding groups in the device where they could move freely. Microdialyses samples were collected every 15 min using a fraction collector (EFC‐96, Eicom Co.) for 3 h and stored at 4°C until analysis. Finally, rats were anesthetized and decapitated, and their brain was harvested.

[2] = test system: T2, Breast cancer resistance protein (BCRP); experiment: as above; conditions: rat, intravenous, with Ko143 15 mg/kg i.p., 30 min before LVFX, Ko143 group, Ko143 15 mg/kg i.p. + LVFX 50 mg/kg, N=5
T2 construct: from tissue; host or cells: living rat (blood-brain barrier, choroid plexus)
Experimental: as §1, §2, §3, §4, §5

[3] = CSF (lateral ventricle microdialysate, unbound), CSF
[4] = brain ECF (hippocampal microdialysate, unbound), 30 min before LVFX, brain ECF

MRT ([1]; CSF (lateral ventricle microdialysate, unbound), 30 min before LVFX, CSF): 69.6 min
Tmax [1, 3]: 15 min
AUC(0-inf) [1, 3]: 4940 ng·h/mL
Cmax [1, 3]: 4260 ± 320 ng/mL
half-life [1, 3]: 41.8 ± 6.9 min
AUC(0-t) [1, 3]: 4650 ng·h/mL
Tmax [1, 4]: 15 min
AUC(0-inf) [1, 4]: 4650 ng·h/mL
Cmax [1, 4]: 3710 ± 250 ng/mL
MRT [1, 4]: 75.5 min
half-life [1, 4]: 44.4 ± 10.4 min
AUC(0-t) [1, 4]: 4280 ng·h/mL
Tmax ([1]; 30 min before LVFX, blood): 15 min
AUC(0-inf) ([1]; 30 min before LVFX, blood): 11900 ng·h/mL
Cmax ([1]; 30 min before LVFX, blood): 11000 ± 770 ng/mL
MRT ([1]; 30 min before LVFX, blood): 67.7 min
half-life ([1]; 30 min before LVFX, blood): 42.8 ± 7.7 min
AUC(0-t) ([1]; 30 min before LVFX, blood): 11100 ng·h/mL
Kp ([2]; CSF / blood (unbound, microdialysate), AUCu,CSF/AUCu,blood, read-out: K p,uu,CSF): 0.424 ± 0.035
Kp ([2]; brain ECF / blood, AUCu,ECF/AUCu,blood, read-out: K p,uu,ECF): 0.389 ± 0.024
Structure (SMILES): C[C@H]1COc2c(N3CCN(C)CC3)c(F)cc3c(=O)c(C(=O)O)cn1c23 [LVFX, Levofloxacin]
